In ChEMBL document CHEMBL1141123, “Hydroxyethylene sulfones as a new scaffold to address aspartic proteases: design, synthesis, and structural characterization” (J Med Chem, 2005) one finds IC50 and Ki data, which are given here for 11 compounds.

Experiment [1] concerns the target T1, Human immunodeficiency virus type 1 protease (Human immunodeficiency virus 1, UniProt Q72874). Nature of the experiment: Inhibitory concentration against HIV-1 protease expressed in Escherichia coli upon incubation in pH 5.5 buffer containing Abz-Thr-Ile-p-nitrophenylalanine-Phe-Gln-Arg-NH2.
The target of experiment [2] is T1, Human immunodeficiency virus type 1 protease. As to the kind of experiment: Binding affinity for HIV-1 protease expressed in Escherichia coli upon incubation in pH 5.5 buffer containing Abz-Thr-Ile-p-nitrophenylalanine-Phe-Gln-Arg-NH2.
Another experiment has as its target Cathepsin D (Homo sapiens, UniProt P07339). As to the kind of experiment: Binding affinity af the compound towards cathepsin D.

“And” between values parts separate entries of the source, which are not always exact repeats. Equal values may be shown once.

Usually IC50 stands for the concentration at which inhibition is half-maximal. The low end stands for higher potency, the high end for lower potency. What is called Ki is a measure of affinity in units of concentration, obtained from inhibition or displacement. `Cc1cccc(C)c1OCC(=O)N[C@H](Cc1cccc(Br)c1)[C@@H](O)C[C@@H](CC(C)C)S(=O)(=O)c1ccc(F)cc1` registered an IC50 in experiment [1] of 2000 nM. Moreover, in experiment [2], the inhibitory constant (Ki) was 1400 nM. With `O=C(N[C@H](Cc1cccc(Br)c1)[C@@H](O)C[C@@H](CCc1ccc(Cl)cc1Cl)S(=O)(=O)c1ccc(F)cc1)[C@H]1CCCO1`, the concentration for half-maximal inhibition (IC50) in experiment [1] is > 40000 nM. For the same compound, the inhibitory constant (Ki) in experiment [2] is > 40000 nM. As to `O=C(N[C@@H](Cc1cccc(Br)c1)[C@H](O)C[C@H](CCc1ccc(Cl)cc1Cl)S(=O)(=O)c1ccc(F)cc1)[C@H]1CCCO1`, the Ki in experiment [2] was 3900 nM and 2900 nM.

In the case of `Cc1cccc(C)c1OCC(=O)N[C@@H](Cc1cccc(Br)c1)[C@H](O)C[C@H](CC(C)C)S(=O)(=O)c1ccc(F)cc1`, in experiment [1], the IC50 was 140 nM and 85 nM. Moreover, the Ki in experiment [2] was 80 nM and 45 nM. As for `CC(C)CCS(=O)(=O)[C@@H](C)C[C@@H](O)[C@H](Cc1cccc(Br)c1)NC(=O)CCS(C)(=O)=O`, the IC50 in experiment [1] is > 40000 nM. Also, the Ki in experiment [2] is > 40000 nM. On to `COc1cc(Br)c(C(=O)N[C@@H](Cc2cccc(Br)c2)[C@H](O)C[C@H](CCc2ccc(Cl)cc2Cl)S(=O)(=O)c2ccc(F)cc2)cc1OC`, for which half-maximal inhibition in experiment [1] (IC50) was put at 4500 nM. Affinity in experiment [2] was put at a Ki of 3100 nM. The matching figures for `CNc1ccc(S(=O)(=O)[C@@H](CC(C)C)C[C@@H](O)[C@H](Cc2cccc(Br)c2)NC(=O)COc2c(C)cccc2C)cc1`: 530 nM and 370 nM. Take `Cc1cccc(C)c1OCC(=O)N[C@@H](Cc1cccc(Br)c1)[C@H](O)C[C@H](CC(C)C)S(=O)(=O)c1ccc(N(C)C)cc1`: in experiment [1], it took 790 nM to reach half-maximal inhibition (IC50). The compound further gave an inhibition constant (Ki) in experiment [2] of 540 nM. The matching figures for `O=C(COc1ccc(Cl)cc1Cl)N[C@@H](Cc1cccc(Br)c1)[C@H](O)C[C@H](CCc1ccc(Cl)cc1Cl)S(=O)(=O)c1ccc(F)cc1`: 10000 nM and 7000 nM.

Compound `COc1cc(Br)c(C(=O)N[C@@H](Cc2cccc(Oc3ccccc3)c2)[C@@H](O)CN(CCc2ccc(Cl)cc2Cl)C(=O)CCN2C(=O)c3ccccc3C2=O)cc1OC` showed an inhibitory constant (Ki) on Cathepsin D of 0.07 nM.

In turn, `CC(C)CN(C[C@@H](O)[C@H](Cc1ccccc1)NC(=O)O[C@H]1CCOC1)S(=O)(=O)c1ccc(N)cc1` [AMPRENAVIR] displayed a Ki in experiment [2] of 0.06 nM.
